This is an account of results in patent US11267844B2, “Spirothietane nucleosides” (Janssen Pharmaceutica NV, priority 2017, dated 2022).

Read-outs that look alike come from different tables or passages of the source.

For data set [1], the system named is HCV replicon (NS3-NS5B regions of HCV type 1b) in Huh-7 luc/neo cells. The data set is described as follows: HCV replicon assay (Huh-Luc cells, luciferase read-out). Type of data set: cell-based. Particulars: Hepatitis C virus, Huh-7, 72 h. From the text: The compounds of Formula (I) were examined for activity against HCV in a cellular assay. […] The cellular assay was based on a bicistronic expression construct, as described by Lohmann et al. (1999) Science vol. 285 pp. 110-113 with modifications described by Krieger et al. (2001) Journal of Virology 75: 4614-4624, in a multi-target screening strategy.
In essence, the method was as follows. The assay utilized the stably transfected cell line Huh-7 luc/neo (hereafter referred to as Huh-Luc). This cell line harbors an RNA encoding a bicistronic expression construct comprising the wild type NS3-NS5B regions of HCV type 1b translated from an internal ribosome entry site (IRES) from encephalomyocarditis virus (EMCV), preceded by a reporter portion (FfL-luciferase), and a selectable marker portion (neo^R, neomycine phosphotransferase). The construct is bordered by 5′ and 3′ NTRs (non-translated regions) from HCV genotype 1b. Continued culture of the replicon cells in the presence of G418 (neo^R) is dependent on the replication of the HCV-RNA. The stably transfected replicon cells that express HCV-RNA, which replicates autonomously and to high levels, encoding inter alia luciferase, were used for screening the antiviral compounds.
The replicon cells were plated in 384-well plates in the presence of the test and control compounds which were added in various concentrations. Following an incubation of three days, HCV replication was measured by assaying luciferase activity (using standard luciferase assay substrates and reagents and a Perkin Elmer ViewLux™ ultraHTS microplate imager). Replicon cells in the control cultures have high luciferase expression in the absence of any inhibitor. The inhibitory activity of the compound on luciferase activity was monitored on the Huh-Luc cells, enabling a dose-response curve for each test compound. EC50 values were then calculated, which value represents the amount of the compound required to decrease the level of detected luciferase activity by 50%, or more specifically, the ability of the genetically linked HCV replicon RNA to replicate.

Data set [2] concerns CHIKV strain S27. The data set is described as follows: CHIKV CPE inhibition assay in Huh7 cells. The format is cell-based. Particulars: Chikungunya virus, Huh-7, 48 h. Here is the method: The antiviral activities of the nucleoside analogs against chikungunya virus (CHIKV) were tested using a cell-based high-throughput CPE (cytopathic effect) inhibition assay. In this assay, CHIKV strain S27 and Huh7 cells (a human hepatoma cell line) were employed. The test compounds were prepared in a 9-point fourfold serial dilutions and plated in a 384-well plate. Then, a density of 8000 cells/well and an MOI (Multiplicity of Infection) of 0.25 CHIKV were added to each well. The plates were incubated at 37° C./5% CO2 for 2 days. The antiviral activity of a test compound was measured by addition of an ATPLite™ 1-step kit (PerkinElmer), which measures the ATP levels in live cells protected from viral CPE by a test compound. The cytotoxicity of test compounds was measured in parallel in the absence of virus infection. The readout is luminescence.

Data set [3] in a line: Cytotoxicity in Vero cells (ATPlite cell viability). The format is cell-based. Particulars: African green monkey, Table 1A, read-out: Tox Vero (CC50). The method, then: (§1) The antiviral activity of the compounds against DENV-2/16681/eGFP was determined in a phenotypic antiviral assay with eGFP read-out, a measure for the amount of virus (TV-WI-03476 and TV-WI-05601). In parallel, cytotoxicity of the compounds was measured using ATPLite™ (PerkinElmer, Waltham, Mass.). The assay was performed in two different cell-lines (Vero and Huh-7) to exclude cell-specific activity of the compound.
(§2) In parallel, cytotoxic effects of the compounds (50% cytotoxic concentration [CC50] and 90% cytotoxic concentration [CC90]) were evaluated using an ATPlite cell viability luminescence assay (PerkinElmer). To this end, ATPlite was added to the wells according to the supplier's instructions once the eGFP read-out was performed, and the luminescence was measured; a measure directly relating to the number of viable cells. The CC50 was determined as the 50% inhibitory concentration for the luminescent signal in compound-treated DENV-infected cells compared to untreated DENV-infected cells (virus control), using a medium control as baseline of emitted light (i.e., 0% signal).

Data set [4] can be described thus: Cytotoxicity in Huh-7 cells (ATPlite cell viability). Type of data set: cell-based. As to conditions: human, Table 1A, read-out: Tox Huh-7 (CC50). Here is the method:
as §1, §2

Data set [5] deals with DENV-2/16681/eGFP. Kind of data set: Antiviral activity against DENV-2/16681/eGFP in Vero cells (eGFP read-out). The format is cell-based, dengue virus serotype 2. As to conditions: Dengue virus, DENV2, Vero, 72 h, read-out: DENV Vero (EC50, μM). Here is the method:
as §1
(§3) DENV-2/16681/eGFP was produced by the transfection of the in vitro transcribed RNA of plasmid pFK-DVs-G2A (purchased from Prof. R. Bartenschlager, University of Heidelberg, Germany; FIG. 1) into Huh-7 cells (human hepatocarcinoma cells; kindly provided by Prof. R. Bartenschlager) (TV-WI-04247).
(§4) In brief, 2,500 Vero cells (African green monkey kidney cells; European Collection of Cell Cultures [ECACC], Porton Down, UK; catalogue number 84113001) or Huh-7 cells were seeded in 384-well plates containing 9-fold serially diluted test compound. After incubating 24 h at 37° C., Vero and Huh-7 cells were infected with DENV-2/16681/eGFP at a multiplicity of infection (MOI) of 1 and 5, respectively. After 3 days of incubation at 37° C., the viral replication was quantified by measuring eGFP expression in the cells with a laser microscope. The 50% effective concentration (EC50) was defined as the concentration inhibiting 50% of the eGFP expression of the compound-treated DENV-infected cells vs. the untreated DENV-infected cells (virus control), using the cell controls as baseline of eGFP signal (i.e., 0% signal). In the same way, the 90% effective concentration (EC90) was calculated.

In data set [6] the test system is DENV-2/16681/eGFP. The data set is described as follows: Antiviral activity against DENV-2/16681/eGFP in Huh-7 cells (eGFP read-out). Type of data set: cell-based, dengue virus serotype 2. Particulars: Dengue virus, DENV2, Huh-7, 72 h, read-out: DENV Huh-7 (EC50, μM). The method, then:
as §1, §3, §4

Where [7] appears, read: Table 1A, Huh-Luc replicon cells, 3 days, read-out: HCV Huh-7 (EC50).
Setting [8] is: Table 1A, Huh7 cells, MOI 0.25, 2 days, read-out: CHIKV Huh-7 (EC50).
The mark [9] stands for this setting: read-out: CHIKV Huh-7 (EC50, μM).

For the compound `CCCCOC(=O)[C@H](C)NP(=O)(OC[C@@]1(F)O[C@@H](n2ccc(=O)[nH]c2=O)[C@@]2(CCS2)[C@@H]1O)Oc1ccccc1` (stereo partly drawn) [Compound 25, (2S)-butyl 2-(((((4R,5R,7S,8R)-5-(2,4-dioxo-3,4-dihydropyrimidin-1(2H)-yl)-7-fluoro-8-hydroxy-6-oxa-1-thiaspiro[3.4]octan-7-yl)methoxy)(phenoxy)phosphoryl)amino)propanoate], the EC50 turned out to be 2 µM in data set [1] (setting [7]), 3 µM in data set [2] (setting [8]), 35 µM in data set [5] and 4 µM in data set [6]. In addition, the CC50 in data set [3] and in data set [4] was greater than 100 µM throughout.

Take `Nc1ccn([C@@H]2O[C@](F)(CO)[C@@H](O)[C@]23CCS3)c(=O)n1` [Compound 27, 4-amino-1-((4R,5R,7S,8R)-7-fluoro-8-hydroxy-7-(hydroxymethyl)-6-oxa-1-thiaspiro[3.4]octan-5-yl)pyrimidin-2(1H)-one]: the EC50 was greater than 100 µM in data set [1] (setting [7]), greater than 100 µM in data set [2] (setting [9]), 50 µM in data set [5] and 77 µM in data set [6]. Further, the CC50 in data set [3] and in data set [4] was greater than 100 µM in each case.

For the compound `CC(C)OC(=O)[C@H](C)NP(=O)(OC[C@@]1(F)O[C@@H](n2ccc(N)nc2=O)[C@@]2(CCS2)[C@@H]1O)Oc1ccccc1` (stereo partly drawn) [Compound 31, (2S)-isopropyl 2-(((((4R,5R,7S,8R)-5-(4-amino-2-oxopyrimidin-1(2H)-yl)-7-fluoro-8-hydroxy-6-oxa-1-thiaspiro[3.4]octan-7-yl)methoxy)(phenoxy)phosphoryl)amino)propanoate], the EC50 in data set [1] (setting [7]) was 11 µM; in data set [2] (setting [8]) it was greater than 100 µM; in data set [5] it was greater than 100 µM; in data set [6], 36 µM. For the same compound, the CC50 in data set [3] and in data set [4] was greater than 100 µM throughout.

`O=c1ccn([C@@H]2O[C@](F)(COP(=O)(Oc3ccccc3Cl)OC3CCCC3)[C@@H](O)[C@]23CCS3)c(=O)[nH]1` (stereo partly drawn) [Compound 34, 2-chlorophenyl cyclopentyl (((4R,5R,7S,8R)-5-(2,4-dioxo-3,4-dihydropyrimidin-1(2H)-yl)-7-fluoro-8-hydroxy-6-oxa-1-thiaspiro[3.4]octan-7-yl)methyl) phosphate]: the EC50 was greater than 100 µM in data set [1] (read-out: HCV Huh-7 (EC50, μM)); greater than 100 µM in data set [2] (setting [9]); 35 µM in data set [5]; 53 µM in data set [6]. Besides, the CC50 in data set [3] and in data set [4] was greater than 100 µM each time.

As to `O=c1ccn([C@@H]2O[C@]3(F)COP(=O)(OC4CCCC4)O[C@H]3[C@]23CCS3)c(=O)[nH]1` (stereo partly drawn) [Compound 35, 1-((2′R,4aS,6R,7aR)-2-(cyclopentyloxy)-4a-fluoro-2-oxidotetrahydrospiro[furo[3,2-d][1,3,2]dioxaphosphinine-7,2′-thietan]-6-yl)pyrimidine-2,4(1H,3H)-dione], the EC50 in data set [1] (setting [7]) was 25 µM; in data set [2] (setting [9]), 72 µM; in data set [5] it was greater than 100 µM; in data set [6] it was greater than 100 µM. Besides, the CC50 in data set [3] and in data set [4] was greater than 100 µM each time.

As to `CC(C)OP(=O)(OC[C@@]1(F)O[C@@H](n2ccc(=O)[nH]c2=O)[C@@]2(CCS2)[C@@H]1O)Oc1ccc(Cl)cc1` (stereo partly drawn) [Compound 37, 4-chlorophenyl (((4R,5R,7S,8R)-5-(2,4-dioxo-3,4-dihydropyrimidin-1(2H)-yl)-7-fluoro-8-hydroxy-6-oxa-1-thiaspiro[3.4]octan-7-yl)methyl) isopropyl phosphate], the EC50 was greater than 100 µM in data set [1] (read-out: HCV Huh-7 (EC50, μM)); greater than 100 µM in data set [2] (setting [9]); greater than 100 µM in data set [5]; greater than 100 µM in data set [6]. For the same compound, the CC50 in data set [3] and in data set [4] was greater than 100 µM in each case.

In the case of `O=c1ccn([C@@H]2O[C@](F)(COP(=O)(NC3CCC3)Oc3ccc(Cl)cc3)[C@@H](O)[C@]23CCS3)c(=O)[nH]1` (stereo partly drawn) [Compound 39, 4-chlorophenyl (((4R,5R,7S,8R)-5-(2,4-dioxo-3,4-dihydropyrimidin-1(2H)-yl)-7-fluoro-8-hydroxy-6-oxa-1-thiaspiro[3.4]octan-7-yl)methyl) cyclobutylphosphoramidate], the EC50 is greater than 100 µM in data set [1] (setting [7]), greater than 100 µM in data set [2] (setting [8]), 45 µM in data set [5] and 49 µM in data set [6]. Further, the CC50 in data set [3] and in data set [4] was greater than 100 µM throughout.

`O=c1ccn([C@@H]2O[C@]3(F)CO[P@](=O)(NC4CCC4)O[C@H]3[C@]23CCS3)c(=O)[nH]1` [Compound 40a, 1-((2R,2′R,4aS,6R,7aR)-2-(cyclobutylamino)-4a-fluoro-2-oxidotetrahydrospiro[furo[3,2-d][1,3,2]dioxaphosphinine-7,2′-thietan]-6-yl)pyrimidine-2,4(1H,3H)-dione]: the EC50 in data set [1] (setting [7]), in data set [2] (setting [8]), in data set [5] and in data set [6] was greater than 100 µM each time. Also, the CC50 in data set [3] and in data set [4] was greater than 100 µM in each case.

For the compound `O=c1ccn([C@@H]2O[C@]3(F)CO[P@@](=O)(NC4CCC4)O[C@H]3[C@]23CCS3)c(=O)[nH]1` [Compound 40b, 1-((2S,2′R,4aS,6R,7aR)-2-(cyclobutylamino)-4a-fluoro-2-oxidotetrahydrospiro[furo[3,2-d][1,3,2]dioxaphosphinine-7,2′-thietan]-6-yl)pyrimidine-2,4(1H,3H)-dione], the EC50 in data set [1] (setting [7]), in data set [2] (setting [8]), in data set [5] and in data set [6] was greater than 100 µM in each case. Besides, the CC50 in data set [3] and in data set [4] was greater than 100 µM throughout.

For the compound `[N-]=[N+]=N[C@]1(CO)O[C@@H](n2ccc(=O)[nH]c2=O)[C@@]2(CCS2)[C@@H]1O` [Compound 44, 1-[(4R,5R,6R,8R)-6-azido-5-hydroxy-6-(hydroxymethyl)-7-oxa-1-thiaspiro[3.4]octan-8-yl]pyrimidine-2,4-dione], the concentration for a half-maximal effect (EC50) in data set [1] (setting [7]), in data set [2] (setting [9]), in data set [5] and in data set [6] was greater than 100 µM throughout. Besides, the CC50 in data set [3] and in data set [4] was greater than 100 µM in each case.
